# Source: US20200085776A1, “Methods of Reducing C-Reactive Protein and/or Treating Cardiovascular Disease” (CARDAX, INC., priority 2018, published 2020)
# Columns and labels:
# Triglycerides = assay: Fasting lipid panel: triglycerides, CHASE clinical study; assay type: in vivo, human; details: for Triglycerides V2 to V6 % Change Max / Triglycerides V2 to V6 % Change Mean (SD) / Triglycerides V2 to V6 % Change Median / Triglycerides V2 to V6 % Change Min / Triglycerides V2 to V6 Change Max / Triglycerides V2 to V6 Change Mean (SD) / Triglycerides V2 to V6 Change Median / Triglycerides V2 to V6 Change Min: baseline to Week 12
# From the text: (§1) Blood samples shall be obtained under fasted conditions for a lipid panel at V2, V4, V6, V7, and V8. This panel shall include total cholesterol, LDL-C, VLDL-C, HDL-C, and triglycerides. A minimum eight-hour fast (water allowed) is required for the lipid panel.
# (§2) Fasting lipid profiles and fasting chemistry panels may be obtained within the visit time window on a day separate from the scheduled office visit, within two days before or after the other study procedures. A minimum of eight hours fasted (water allowed ad lib) is required.
# (§3) Table 7M provides the changes in lipid levels (mg/dL) (V2 to V6) for subjects.
# LDL = assay: Fasting lipid panel: LDL, CHASE clinical study; assay type: in vivo, human; details: for LDL V2 to V6 % Change Max / LDL V2 to V6 % Change Mean (SD) / LDL V2 to V6 % Change Median / LDL V2 to V6 % Change Min / LDL V2 to V6 Change Max / LDL V2 to V6 Change Mean (SD) / LDL V2 to V6 Change Median / LDL V2 to V6 Change Min: baseline to Week 12
# From the text: as §1, §2, §3
# [1] = Group X 12 mg BID, V2 baseline pre-dose, all subjects
# [2] = Group X 12 mg BID, V2 baseline pre-dose, subjects with hyperlipidemia
# [3] = Group X 12 mg BID, V6 Week 12, all subjects
# [4] = Group X 12 mg BID, V6 Week 12, subjects with hyperlipidemia
# [5] = Group X 12 mg BID, all subjects
# [6] = Group X 12 mg BID, subjects with hyperlipidemia
# [7] = Group Z 48 mg BID, V2 baseline pre-dose, all subjects
# [8] = Group Z 48 mg BID, V2 baseline pre-dose, subjects with hyperlipidemia
# [9] = Group Z 48 mg BID, V6 Week 12, all subjects
# [10] = Group Z 48 mg BID, V6 Week 12, subjects with hyperlipidemia
# [11] = Group Z 48 mg BID, all subjects
# [12] = Group Z 48 mg BID, subjects with hyperlipidemia
structure (smiles),measurement,setting,value
"CC1=C(/C=C/C(C)=C/C=C/C(C)=C/C=C/C=C(C)/C=C/C=C(C)/C=C/C2=C(C)C(=O)C(O)CC2(C)C)C(C)(C)CC(O)C1=O (centres unmarked) [Astaxanthin, astaxanthin]",Triglycerides Max,Triglycerides; [1],482.0 mg/dL
same,Triglycerides Mean (SD),Triglycerides; [1],201.9 (122.2) mg/dL
same,Triglycerides Median,Triglycerides; [1],177.0 mg/dL
same,Triglycerides Min,Triglycerides; [1],59.00 mg/dL
same,Triglycerides Max,Triglycerides; [2],482.0 mg/dL
same,Triglycerides Mean (SD),Triglycerides; [2],235.8 (126.1) mg/dL
same,Triglycerides Median,Triglycerides; [2],253.5 mg/dL
same,Triglycerides Min,Triglycerides; [2],80.00 mg/dL
same,Triglycerides Max,Triglycerides; [3],420.0 mg/dL
same,Triglycerides Mean (SD),Triglycerides; [3],177.4 (109.8) mg/dL
same,Triglycerides Median,Triglycerides; [3],131.0 mg/dL
same,Triglycerides Min,Triglycerides; [3],70.00 mg/dL
same,Triglycerides Max,Triglycerides; [4],420.0 mg/dL
same,Triglycerides Mean (SD),Triglycerides; [4],202.3 (120.2) mg/dL
same,Triglycerides Median,Triglycerides; [4],211.5 mg/dL
same,Triglycerides Min,Triglycerides; [4],70.00 mg/dL
same,Triglycerides V2 to V6 % Change Max,Triglycerides; [5],42.37%
same,Triglycerides V2 to V6 % Change Mean (SD),Triglycerides; [5],−7.10 (27.88) %
same,Triglycerides V2 to V6 % Change Median,Triglycerides; [5],−12.9%
same,Triglycerides V2 to V6 % Change Min,Triglycerides; [5],−61.5%
same,Triglycerides V2 to V6 Change Max,Triglycerides; [5],56.00 mg/dL
same,Triglycerides V2 to V6 Change Mean (SD),Triglycerides; [5],−24.6 (59.47) mg/dL
same,Triglycerides V2 to V6 Change Median,Triglycerides; [5],-26.0 mg/dL
same,Triglycerides V2 to V6 Change Min,Triglycerides; [5],-166 mg/dL
same,Triglycerides V2 to V6 % Change Max,Triglycerides; [6],22.76%
same,Triglycerides V2 to V6 % Change Mean (SD),Triglycerides; [6],−12.9 (26.00) %
same,Triglycerides V2 to V6 % Change Median,Triglycerides; [6],−14.5%
same,Triglycerides V2 to V6 % Change Min,Triglycerides; [6],−61.5%
same,Triglycerides V2 to V6 Change Max,Triglycerides; [6],56.00 mg/dL
same,Triglycerides V2 to V6 Change Mean (SD),Triglycerides; [6],−33.5 (66.92) mg/dL
same,Triglycerides V2 to V6 Change Median,Triglycerides; [6],-34.0 mg/dL
same,Triglycerides V2 to V6 Change Min,Triglycerides; [6],-166 mg/dL
same,Triglycerides Max,Triglycerides; [7],1677 mg/dL
same,Triglycerides Mean (SD),Triglycerides; [7],283.5 (368.2) mg/dL
same,Triglycerides Median,Triglycerides; [7],175.0 mg/dL
same,Triglycerides Min,Triglycerides; [7],75.00 mg/dL
same,Triglycerides Max,Triglycerides; [8],1677 mg/dL
same,Triglycerides Mean (SD),Triglycerides; [8],321.9 (407.8) mg/dL
same,Triglycerides Median,Triglycerides; [8],182.0 mg/dL
same,Triglycerides Min,Triglycerides; [8],82.00 mg/dL
same,Triglycerides Max,Triglycerides; [9],650.0 mg/dL
same,Triglycerides Mean (SD),Triglycerides; [9],192.2 (155.1) mg/dL
same,Triglycerides Median,Triglycerides; [9],145.5 mg/dL
same,Triglycerides Min,Triglycerides; [9],63.00 mg/dL
same,Triglycerides Max,Triglycerides; [10],650.0 mg/dL
same,Triglycerides Mean (SD),Triglycerides; [10],213.1 (170.3) mg/dL
same,Triglycerides Median,Triglycerides; [10],149.5 mg/dL
same,Triglycerides Min,Triglycerides; [10],76.00 mg/dL
same,Triglycerides V2 to V6 % Change Max,Triglycerides; [11],115.2%
same,Triglycerides V2 to V6 % Change Mean (SD),Triglycerides; [11],−0.96 (43.74) %
same,Triglycerides V2 to V6 % Change Median,Triglycerides; [11],−16.2%
same,Triglycerides V2 to V6 % Change Min,Triglycerides; [11],−49.5%
same,Triglycerides V2 to V6 Change Max,Triglycerides; [11],348.0 mg/dL
same,Triglycerides V2 to V6 Change Mean (SD),Triglycerides; [11],−9.89 (109.9) mg/dL
same,Triglycerides V2 to V6 Change Median,Triglycerides; [11],-24.5 mg/dL
same,Triglycerides V2 to V6 Change Min,Triglycerides; [11],-178 mg/dL
same,Triglycerides V2 to V6 % Change Max,Triglycerides; [12],115.2%
same,Triglycerides V2 to V6 % Change Mean (SD),Triglycerides; [12],0.07 (48.86) %
same,Triglycerides V2 to V6 % Change Median,Triglycerides; [12],−21.5%
same,Triglycerides V2 to V6 % Change Min,Triglycerides; [12],−49.5%
same,Triglycerides V2 to V6 Change Max,Triglycerides; [12],348.0 mg/dL
same,Triglycerides V2 to V6 Change Mean (SD),Triglycerides; [12],−12.0 (124.4) mg/dL
same,Triglycerides V2 to V6 Change Median,Triglycerides; [12],-29.0 mg/dL
same,Triglycerides V2 to V6 Change Min,Triglycerides; [12],-178 mg/dL
same,LDL Max,LDL; [1],220.0 mg/dL
same,LDL Mean (SD),LDL; [1],111.9 (61.26) mg/dL
same,LDL Median,LDL; [1],112.0 mg/dL
same,LDL Min,LDL; [1],37.00 mg/dL
same,LDL Max,LDL; [2],220.0 mg/dL
same,LDL Mean (SD),LDL; [2],99.00 (66.54) mg/dL
same,LDL Median,LDL; [2],73.00 mg/dL
same,LDL Min,LDL; [2],37.00 mg/dL
same,LDL Max,LDL; [3],236.0 mg/dL
same,LDL Mean (SD),LDL; [3],109.6 (67.65) mg/dL
same,LDL Median,LDL; [3],102.0 mg/dL
same,LDL Min,LDL; [3],40.00 mg/dL
same,LDL Max,LDL; [4],236.0 mg/dL
same,LDL Mean (SD),LDL; [4],94.57 (70.92) mg/dL
same,LDL Median,LDL; [4],60.00 mg/dL
same,LDL Min,LDL; [4],40.00 mg/dL
same,LDL V2 to V6 % Change Max,LDL; [5],21.62%
same,LDL V2 to V6 % Change Mean (SD),LDL; [5],−3.46 (13.64) %
same,LDL V2 to V6 % Change Median,LDL; [5],−7.02%
same,LDL V2 to V6 % Change Min,LDL; [5],−21.6%
same,LDL V2 to V6 Change Max,LDL; [5],17.00 mg/dL
same,LDL V2 to V6 Change Mean (SD),LDL; [5],−2.30 (12.98) mg/dL
same,LDL V2 to V6 Change Median,LDL; [5],-6.50 mg/dL
same,LDL V2 to V6 Change Min,LDL; [5],-18.0 mg/dL
same,LDL V2 to V6 % Change Max,LDL; [6],21.62%
same,LDL V2 to V6 % Change Mean (SD),LDL; [6],−5.19 (15.13) %
same,LDL V2 to V6 % Change Median,LDL; [6],−10.2%
same,LDL V2 to V6 % Change Min,LDL; [6],−21.6%
same,LDL V2 to V6 Change Max,LDL; [6],16.00 mg/dL
same,LDL V2 to V6 Change Mean (SD),LDL; [6],−4.43 (12.39) mg/dL
same,LDL V2 to V6 Change Median,LDL; [6],-11.0 mg/dL
same,LDL V2 to V6 Change Min,LDL; [6],-18.0 mg/dL
same,LDL Max,LDL; [7],206.0 mg/dL
same,LDL Mean (SD),LDL; [7],99.13 (46.59) mg/dL
same,LDL Median,LDL; [7],84.00 mg/dL
same,LDL Min,LDL; [7],34.00 mg/dL
same,LDL Max,LDL; [8],166.0 mg/dL
same,LDL Mean (SD),LDL; [8],89.33 (40.83) mg/dL
same,LDL Median,LDL; [8],75.50 mg/dL
same,LDL Min,LDL; [8],34.00 mg/dL
same,LDL Max,LDL; [9],176.0 mg/dL
same,LDL Mean (SD),LDL; [9],90.31 (37.82) mg/dL
same,LDL Median,LDL; [9],81.00 mg/dL
same,LDL Min,LDL; [9],49.00 mg/dL
same,LDL Max,LDL; [10],176.0 mg/dL
same,LDL Mean (SD),LDL; [10],82.42 (37.25) mg/dL
same,LDL Median,LDL; [10],70.00 mg/dL
same,LDL Min,LDL; [10],49.00 mg/dL
same,LDL V2 to V6 % Change Max,LDL; [11],15.71%
same,LDL V2 to V6 % Change Mean (SD),LDL; [11],−14.5 (17.99) %
same,LDL V2 to V6 % Change Median,LDL; [11],−12.0%
same,LDL V2 to V6 % Change Min,LDL; [11],−50.0%
same,LDL V2 to V6 Change Max,LDL; [11],11.00 mg/dL
same,LDL V2 to V6 Change Mean (SD),LDL; [11],−18.9 (24.97) mg/dL
same,LDL V2 to V6 Change Median,LDL; [11],-11.0 mg/dL
same,LDL V2 to V6 Change Min,LDL; [11],-83.0 mg/dL
same,LDL V2 to V6 % Change Max,LDL; [12],15.00%
same,LDL V2 to V6 % Change Mean (SD),LDL; [12],−17.4 (18.43) %
same,LDL V2 to V6 % Change Median,LDL; [12],−12.5%
same,LDL V2 to V6 % Change Min,LDL; [12],−50.0%
same,LDL V2 to V6 Change Max,LDL; [12],9.00 mg/dL
same,LDL V2 to V6 Change Mean (SD),LDL; [12],−20.5 (26.25) mg/dL
same,LDL V2 to V6 Change Median,LDL; [12],-11.0 mg/dL
same,LDL V2 to V6 Change Min,LDL; [12],-83.0 mg/dL
